Source: patent publication US20160317430A1, “COSMETIC USE OF AN EXTRACT OF GYMNEMA SYLVESTRE” (LABORATOIRES CLARINS, priority 2013, published 2016)

System: cytochrome C oxidase, complex IV of the respiratory chain
Experiment: Cytochrome C oxidase activity in human keratinocytes in culture, with or without H2O2 oxidative stress
Format: cell-based
Conditions: H2O2 alone (positive control), 24 h
Experimental: The keratinocyte cultures were established using skin from human foreskins collected at circumcisions and were amplified in KGM2 medium (Keratinocyte Growth Medium, KGN2, clonetics) supplemented with insulin, EGF and pituitary extract. The tests were conducted on keratinocytes at the 3rd passage. The cells were inoculated in multi-well dishes at a rate of 1×10^6 cells. After 24 hours of incubation at 37° C. (5% CO2), the cells in the exponential growth phase were treated with Gymnema sylvestre extract at the concentrations of 0.125% and 0.25% alone or in the presence of H2O2.
After 24 hours of treatment, the cells were sampled and then washed and resuspended in cold PBS. The evaluation of the cytochrome C oxidase activity was then carried out using the analysis kit (Cytochrome C Oxidase Assay Kit—Sigma) according to the protocol specified.

OO [H2O2, hydrogen peroxide]
% (cytochrome C oxidase activity vs negative control): −34% | ATP mean (Table II, cytochrome C oxidase activity test): 0.87 nmol/10^7 cells
